Among the data in patent US9556158B2, “Fungicidal 3-[(pyridin-2-ylmethoxyimino)(phenyl)methyl]-2-substituted-1,2,4-oxadiazol-5(2H)-one derivatives” (BAYER INTELLECTUAL PROPERTY GMBH, priority 2011, dated 2017) are chromatographic logP and pest or weed control values, retold here.

For data set [1] the following is noted: pH 2.7, LogP, HPLC on reversed phase columns, pH 2.7, 0.1% formic acid in water / acetonitrile gradient.
Protocol: Measurement of log P values was performed according EEC directive 79/831 Annex V.A8 by HPLC (High Performance Liquid Chromatography) on reversed phase columns with the following method:
Measurement of LC-MS was done at pH 2.7 with 0.1% formic acid in water and with acetonitrile (contains 0.1% formic acid) as eluent with a linear gradient from 10% acetonitrile to 95% acetonitrile.
Calibration was done with not branched alkan2-ones (with 3 to 16 carbon atoms) with known log P-values (measurement of log P values using retention times with linear interpolation between successive alkanones). lambda-maX-values were determined using UV-spectra from 200 nm to 400 nm and the peak values of the chromatographic signals.
In a further data set the test system is Phytophthora infestans. The data set is described as follows: whole plant or invertebrate. The data set is classed as in vivo. The settings on record: in Solanum lycopersicum, 120 h, read-out: % efficacy.

For `Cc1cccc(C(=NOCc2cccc(NC(=O)c3ccc(F)cc3)n2)c2nc(=O)on2C)c1` [Example 87], the chromatographic logP in data set [1] was 3.33. Moreover, in the data set on Phytophthora infestans, the pest or weed control at 500 ppm worked out at 75%. On the same counts, the results for `CCn1oc(=O)nc1/C(=N\OCc1cccc(NC(=O)OC(C)(C)C)n1)c1ccccc1` [Example 40, tert-butyl {6-[({[(Z)-(2-ethyl-5-oxo-2,5-dihydro-1,2,4-oxadiazol-3-yl)(phenyl)methylene]amino}oxy)methyl]pyridin-2-yl}carbamate] are 3.58 and 73%. On the same counts, the results for `COc1cccc(C(=NOCc2cccc(NC(=O)OCCC(C)C)n2)c2nc(=O)on2C)c1` [Example 101] are 3.78 and 70%.

The compound `O=C(Cc1ccccc1)Nc1cccc(CON=C(c2cccc(F)c2)c2nc(=O)o[nH]2)n1` [Example 76] came in with a chromatographic logP in data set [1] of 3.04. Moreover, in the data set on Phytophthora infestans, the pest or weed control at 500 ppm came out at 90%. On the same counts, the results for `CCCCC(=O)Nc1cccc(CON=C(c2cccc(C)c2)c2nc(=O)on2C)n1` [Example 60] are 3.19 and 89%. In data set [1], `CCCCCCC(=O)Nc1cccc(CON=C(c2cccc(OC)c2)c2nc(=O)o[nH]2)n1` [Example 50] gave a chromatographic logP of 3.71. Also, the pest or weed control at 500 ppm with Phytophthora infestans turned out to be 100%.

As to `Cc1cccc(C(=NOCc2cccc(NC(=O)OC3CCCCC3)n2)c2nc(=O)on2C)c1` [Example 30], the chromatographic logP in data set [1] amounted to 4.11. The pest or weed control at 500 ppm with Phytophthora infestans is 78%. The like results for `COc1ccc(CC(=O)Nc2cccc(CON=C(c3cccc(OC)c3)c3nc(=O)o[nH]3)n2)cc1` [Example 48] were, in that order, 2.98 and 100%. With `COc1ccc(CC(=O)Nc2cccc(CON=C(c3cccc(F)c3)c3nc(=O)o[nH]3)n2)cc1` [Example 73], the chromatographic logP in data set [1] was determined as 3. Besides, the pest or weed control at 500 ppm in the data set with Phytophthora infestans was found to be 95%. The like results for `Cn1oc(=O)nc1C(=NOCc1cccc(N)n1)c1cccc(F)c1` [Example 23] were, in that order, 0.99 and 98%. The like results for `O=C(Cc1cccc(F)c1)Nc1cccc(CON=C(c2cccc(F)c2)c2nc(=O)o[nH]2)n1` [Example 74] were, in that order, 3.13 and 85%.

On to `Cc1cccc(C(=NOCc2cccc(NC(=O)OC(C)(C)C)n2)c2nc(=O)on2C)c1` [Example 21], for which the chromatographic logP in data set [1] was determined as 3.65. The pest or weed control at 500 ppm in the data set on Phytophthora infestans was 100%. On the same counts, the results for `COc1ccc(CC(=O)Nc2cccc(CON=C(c3cccc(C)c3)c3nc(=O)on3C)n2)cc1` [Example 100] are 3.19 and 100%. On the same counts, the results for `CCCCC(=O)Nc1cccc(CON=C(c2cccc(F)c2)c2nc(=O)o[nH]2)n1` [Example 72] are 2.98 and 85%.

On to `Cc1cccc(C(=NOCc2cccc(NC(=O)C(C)(C)C)n2)c2nc(=O)on2C)c1` [Example 57], for which the chromatographic logP in data set [1] was found to be 3.17. For the same compound, the pest or weed control at 500 ppm in the data set on Phytophthora infestans worked out at 75%. The like results for `COc1cccc(C(=NOCc2cccc(NC(=O)c3ccc(C)cc3)n2)c2nc(=O)on2C)c1` [Example 106] were, in that order, 3.27 and 90%.

In data set [1], `CCCCCCC(=O)Nc1cccc(CON=C(c2cccc(C)c2)c2nc(=O)on2C)n1` [Example 78] gave a chromatographic logP of 3.96. Also, the pest or weed control at 500 ppm in the data set on Phytophthora infestans came out at 70%. In turn, `Cc1cccc(C(=NOCc2cccc(N)n2)c2nc(=O)on2C)c1` [Example 31] displayed a chromatographic logP in data set [1] of 1.17. The pest or weed control at 500 ppm in the data set with Phytophthora infestans was 93%. The like results for `C#CCCOC(=O)Nc1cccc(CON=C(c2cccc(OC)c2)c2nc(=O)on2C)n1` [Example 96] were, in that order, 2.75 and 90%. For `CCCCCOC(=O)Nc1cccc(CON=C(c2cccc(F)c2)c2nc(=O)o[nH]2)n1` [Example 69], the chromatographic logP in data set [1] amounted to 3.89. Besides, the pest or weed control at 500 ppm in the data set on Phytophthora infestans worked out at 100%.

Regarding `Cc1cccc(C(=NOCc2cccc(NC(=O)c3ccccc3)n2)c2nc(=O)on2C)c1` [Example 82], the chromatographic logP in data set [1] is 3.21. In the data set with Phytophthora infestans, the pest or weed control at 500 ppm is 75%. On the same counts, the results for `COc1cccc(C(=NOCc2cccc(NC(=O)OCc3ccccc3)n2)c2nc(=O)on2C)c1` [Example 104] are 3.42 and 88%.

Take `COc1cccc(C(=NOCc2cccc(NC(=O)OC3CCCCC3)n2)c2nc(=O)on2C)c1` [Example 28]: the chromatographic logP in data set [1] was 3.85. Moreover, the pest or weed control at 500 ppm with Phytophthora infestans is 78%. On the same counts, the results for `CC#CCOC(=O)Nc1cccc(CON=C(c2cccc(F)c2)c2nc(=O)o[nH]2)n1` [Example 65] are 2.94 and 100%.

With `Cc1ccc(C(=O)Nc2cccc(CON=C(c3cccc(C)c3)c3nc(=O)on3C)n2)cc1` [Example 80], the chromatographic logP in data set [1] amounted to 3.53. For the same compound, the pest or weed control at 500 ppm in the data set on Phytophthora infestans was determined as 80%. On the same counts, the results for `C#CCC(C)OC(=O)Nc1cccc(CON=C(c2cccc(C)c2)c2nc(=O)on2C)n1` (stereo not shown) [Example 83] are 3.25 and 94%.

On to `CCCCCCC(=O)Nc1cccc(CON=C(c2cccc(F)c2)c2nc(=O)o[nH]2)n1` [Example 70], for which the chromatographic logP in data set [1] is 3.76. In addition, the pest or weed control at 500 ppm with Phytophthora infestans stood at 80%. On the same counts, the results for `CC#CCOC(=O)Nc1cccc(CON=C(c2cccc(C)c2)c2nc(=O)on2C)n1` [Example 107] are 3.13 and 93%. The like results for `C#CCC(C)OC(=O)Nc1cccc(CON=C(c2cccc(OC)c2)c2nc(=O)on2C)n1` (stereo not shown) [Example 94] were, in that order, 3.02 and 85%. On the same counts, the results for `CC(Oc1ccccc1)C(=O)Nc1cccc(CON=C(c2cccc(F)c2)c2nc(=O)on2C)n1` (stereo not shown) [Example 97] are 3.44 and 70%. In data set [1], `CCCCSC(=S)Nc1cccc(CON=C(c2ccccc2)c2nc(=O)on2C)n1` [Example 38] yielded a chromatographic logP of 4.15. For the same compound, the pest or weed control at 500 ppm with Phytophthora infestans was determined as 93%. On the same counts, the results for `CCCCOC(=O)Nc1cccc(CON=C(c2cccc(C)c2)c2nc(=O)on2C)n1` [Example 58] are 3.69 and 75%. The like results for `CCCCCOC(=O)Nc1cccc(CON=C(c2cccc(C)c2)c2nc(=O)on2C)n1` [Example 56] were, in that order, 4.11 and 83%. On the same counts, the results for `Cn1oc(=O)nc1C(=NOCc1cccc(NC(=O)SC(C)(C)C)n1)c1ccccc1` [Example 39] are 3.73 and 99%. In the case of `CCCCOC(=S)Nc1cccc(CON=C(c2ccccc2)c2nc(=O)on2C)n1` [Example 43], the chromatographic logP in data set [1] came to 3.89. Besides, in the data set on Phytophthora infestans, the pest or weed control at 500 ppm was 99%. Consider `Cc1cccc(C(=O)Nc2cccc(CON=C(c3cccc(F)c3)c3nc(=O)o[nH]3)n2)c1` [Example 75], for which, in data set [1], the chromatographic logP amounted to 3.35. For the same compound, in the data set on Phytophthora infestans, the pest or weed control at 500 ppm came out at 98%. For `Cc1cccc(C(=NOCc2cccc(NC(=O)C(C)Oc3ccccc3)n2)c2nc(=O)on2C)c1` (stereo not shown) [Example 103], the chromatographic logP in data set [1] was 3.64. Moreover, the pest or weed control at 500 ppm in the data set on Phytophthora infestans stood at 80%. `Cc1cccc(C(=NOCc2cccc(NC(=O)CC(C)C)n2)c2nc(=O)on2C)c1` [Example 85]: the chromatographic logP in data set [1] is 3.13. Moreover, the pest or weed control at 500 ppm in the data set on Phytophthora infestans came out at 100%. `C#CCC(C)OC(=O)Nc1cccc(CON=C(c2cccc(F)c2)c2nc(=O)on2C)n1` (stereo not shown) [Example 99] came in with a chromatographic logP in data set [1] of 3.09. In addition, in the data set with Phytophthora infestans, the pest or weed control at 500 ppm worked out at 100%. On the same counts, the results for `Cn1oc(=O)nc1C(=NOCc1cccc(NC(=O)OC2CCCCC2)n1)c1cccc(F)c1` [Example 33] are 3.92 and 100%. The like results for `CCCCCC(=O)Nc1cccc(CON=C(c2cccc(C)c2)c2nc(=O)on2C)n1` [Example 59] were, in that order, 3.58 and 90%.

For `Cn1oc(=O)nc1C(=NOCc1cccc(NC(=O)OC2CCCCC2)n1)c1ccccc1` [Example 26], the chromatographic logP in data set [1] came out at 3.81. Also, in the data set with Phytophthora infestans, the pest or weed control at 500 ppm was 99%. In data set [1], `COCCn1oc(=O)nc1C(=NOCc1cccc(NC(=O)OC(C)(C)C)n1)c1ccccc1` [Example 42] yielded a chromatographic logP of 3.61. The same measure, in the same setting: as for `Cn1oc(=O)nc1/C(=N\OCc1cccc(N)n1)c1ccccc1` [Example 11, 3-[(Z)-{[(6-aminopyridin-2-yl)methoxy]imino}(phenyl)methyl]-2-methyl-1,2,4-oxadiazol-5(2H)-one], the figure is 0.84; as for `Cn1oc(=O)nc1C(=NOCc1cccc(NC(=O)OCc2ccccc2Cl)n1)c1ccccc1` [Example 184], 3.76; as for `CCC(C)(C)C(=O)Nc1cccc(CON=C(c2ccccc2)c2nc(=O)on2C)n1` [Example 176], 3.17. Take `Cn1oc(=O)nc1C(=NOCc1cccc(NC(=O)CCc2ccccc2)n1)c1ccccc1` [Example 119]: the chromatographic logP in data set [1] came to 3.21. In turn, `COc1ccc(CC(=O)Nc2cccc(CON=C(c3cccc(F)c3F)c3nc(=O)on3C)n2)cc1` [Example 191] had a chromatographic logP in data set [1] of 2.98. `COc1cccc(C(=NOCc2cccc(NC(=O)C(C)(C)C)n2)c2nc(=O)on2C)c1` [Example 93] gave a chromatographic logP in data set [1] of 2.92. The same measure, in the same setting: as for `COc1cccc(C(=O)Nc2cccc(CON=C(c3cccc(C)c3)c3nc(=O)on3C)n2)c1` [Example 88], the figure is 3.31; as for `Cc1ccc(C(=O)Nc2cccc(CON=C(c3ccccc3)c3nc(=O)on3C)n2)cc1` [Example 159], 3.23. Regarding `C#CCCOC(=O)Nc1cccc(CON=C(c2cccc(F)c2F)c2nc(=O)on2C)n1` [Example 189], in data set [1], the chromatographic logP turned out to be 2.78.
